According to ChEMBL document CHEMBL1250454, “Oral oxytocin antagonists” (J Med Chem, 2010):
pIC50, pKi: −log10 of the molar value. Converted amounts (≈) assume the structure as drawn.

Columns and labels:
Oxytocin receptor [1] = target: T1, Oxytocin receptor (Homo sapiens, UniProt P30559); test: Displacement of [3H]-oxytocin from human oxytocin receptor expressed in CHO cells; assay type: cell-based
T1 sequence (P30559 whole entry): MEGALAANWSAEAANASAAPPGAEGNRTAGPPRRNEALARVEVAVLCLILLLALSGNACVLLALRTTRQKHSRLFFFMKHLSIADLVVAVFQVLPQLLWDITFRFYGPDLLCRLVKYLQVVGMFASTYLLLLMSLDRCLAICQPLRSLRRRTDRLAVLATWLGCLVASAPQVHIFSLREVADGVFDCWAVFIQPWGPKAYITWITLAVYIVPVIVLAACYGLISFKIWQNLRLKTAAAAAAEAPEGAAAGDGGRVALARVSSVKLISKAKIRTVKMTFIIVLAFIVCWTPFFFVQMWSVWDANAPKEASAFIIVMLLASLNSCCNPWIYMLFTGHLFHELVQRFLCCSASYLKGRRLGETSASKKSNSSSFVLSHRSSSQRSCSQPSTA

Vasopressin V1a receptor [2] = target: T2, Vasopressin V1a receptor (Homo sapiens, UniProt P37288); test: Displacement of [3H]vasopressin from human vasopressin V1a receptor expressed in CHO cells at 10 uM; assay type: cell-based
Vasopressin V2 receptor [3] = target: T3, Vasopressin V2 receptor (Homo sapiens, UniProt P30518); test: Displacement of [3H]vasopressin from human vasopressin V2 receptor expressed in CHO cells; assay type: cell-based
Vasopressin V1b receptor = target: T4, Vasopressin V1b receptor (Homo sapiens, UniProt P47901); test: Displacement of [3H]vasopressin from human vasopressin V1b receptor expressed in CHO cells; assay type: cell-based
T4 sequence (P47901 whole entry): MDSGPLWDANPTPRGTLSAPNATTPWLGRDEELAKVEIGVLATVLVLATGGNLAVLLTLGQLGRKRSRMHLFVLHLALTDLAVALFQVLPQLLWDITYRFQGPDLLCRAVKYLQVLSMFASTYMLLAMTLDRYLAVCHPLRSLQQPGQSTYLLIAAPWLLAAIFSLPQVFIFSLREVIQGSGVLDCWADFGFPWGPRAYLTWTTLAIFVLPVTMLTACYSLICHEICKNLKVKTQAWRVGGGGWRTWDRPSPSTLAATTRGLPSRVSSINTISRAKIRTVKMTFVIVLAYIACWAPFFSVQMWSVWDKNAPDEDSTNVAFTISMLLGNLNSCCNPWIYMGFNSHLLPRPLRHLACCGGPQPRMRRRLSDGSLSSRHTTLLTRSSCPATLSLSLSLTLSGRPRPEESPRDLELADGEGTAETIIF

Rattus norvegicus [4] = test: Inhibition of oxytocin-induced uterine contraction in intraduodenally dosed rat; assay type: functional
[5] = Half life in rhesus monkey; assay type: ADME, organism-based, Macaca mulatta; conditions: in vivo
Vasopressin V2 receptor [6] = target: T3, Vasopressin V2 receptor; test: Displacement of [3H]vasopressin from vasopressin V2 receptor in human kidney tissue
Vasopressin V1a receptor [7] = target: T2, Vasopressin V1a receptor; test: Displacement of [3H]vasopressin from vasopressin V1a receptor in human liver tissue
Target sequence in this assay (P37288 whole entry): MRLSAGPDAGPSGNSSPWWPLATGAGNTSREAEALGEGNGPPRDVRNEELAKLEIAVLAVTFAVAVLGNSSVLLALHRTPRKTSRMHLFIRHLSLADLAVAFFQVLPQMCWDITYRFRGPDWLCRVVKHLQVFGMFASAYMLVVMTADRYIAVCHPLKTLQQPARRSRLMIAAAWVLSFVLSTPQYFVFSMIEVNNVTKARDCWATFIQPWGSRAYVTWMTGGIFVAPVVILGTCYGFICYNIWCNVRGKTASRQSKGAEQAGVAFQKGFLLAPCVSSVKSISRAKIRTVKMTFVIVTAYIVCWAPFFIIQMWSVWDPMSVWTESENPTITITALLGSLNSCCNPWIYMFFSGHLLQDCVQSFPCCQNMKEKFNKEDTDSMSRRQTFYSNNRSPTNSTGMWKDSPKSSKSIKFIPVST

Rattus norvegicus [8] = test: Inhibition of oxytocin-induced uterine contraction in iv dosed rat; assay type: functional
[9] = Aqueous solubility of the compound at pH 5; assay type: physicochemical
[10] = Oral bioavailability in rhesus monkey; assay type: ADME, organism-based, Macaca mulatta; conditions: in vivo
Oxytocin receptor [11] = target: T1, Oxytocin receptor; test: Displacement of [3H]-oxytocin from oxytocin receptor in human uterus tissue; assay type: tissue-based
[12] = Oral bioavailability in rat; assay type: ADME, organism-based; conditions: in vivo
Oxytocin receptor [13] = target: T5, Oxytocin receptor (Rattus norvegicus, UniProt P70536); test: Displacement of [3H]-oxytocin from oxytocin receptor in rat uterus tissue; assay type: tissue-based
T5 sequence (P70536 whole entry): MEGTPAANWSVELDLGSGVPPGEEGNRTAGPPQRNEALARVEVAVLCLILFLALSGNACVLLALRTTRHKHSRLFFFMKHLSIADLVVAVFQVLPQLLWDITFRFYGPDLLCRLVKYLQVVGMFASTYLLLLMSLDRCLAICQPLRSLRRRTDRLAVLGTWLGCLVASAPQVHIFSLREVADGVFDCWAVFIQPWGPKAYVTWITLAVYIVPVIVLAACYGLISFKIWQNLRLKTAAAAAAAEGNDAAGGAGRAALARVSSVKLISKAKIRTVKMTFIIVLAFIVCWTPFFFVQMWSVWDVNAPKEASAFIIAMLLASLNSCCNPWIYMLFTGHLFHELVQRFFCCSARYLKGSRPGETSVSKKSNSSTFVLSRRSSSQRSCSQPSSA

[14] = Oral bioavailability in chimpanzee; assay type: ADME, organism-based, Pan troglodytes; conditions: in vivo
Vasopressin V1a receptor [15] = target: Vasopressin V1a receptor (Rattus norvegicus, UniProt P30560); test: Displacement of [3H]vasopressin from vasopressin V1a receptor in rat liver tissue
Vasopressin V2 receptor [16] = target: Vasopressin V2 receptor (Rattus norvegicus, UniProt Q00788); test: Displacement of [3H]vasopressin from vasopressin V2 receptor in rat kidney tissue
Homo sapiens [17] = organism: Homo sapiens; test: Selectivity ratio of Ki for human oxytocin receptor Ki for human vasopressin V1a receptor
Homo sapiens [18] = organism: Homo sapiens; test: Selectivity ratio of Ki for human oxytocin receptor Ki for human vasopressin V2 receptor
Oxytocin receptor [19] = target: T1, Oxytocin receptor; test: Displacement of [3H]-oxytocin from human oxytocin receptor expressed in HEK293-EBNA cells; assay type: cell-based
Oxytocin receptor [20] = target: T5, Oxytocin receptor; test: Antagonist activity at oxytocin receptor in rat uterine strips assessed as inhibition of oxytocin-induced contraction; assay type: functional; conditions: read-out: pA2 (converted)
[21] = Oral bioavailability in pregnant rat; assay type: ADME, organism-based; conditions: female, in vivo
Rattus norvegicus [22] = test: Inhibition of oxytocin-induced uterine contraction in po dosed rat; assay type: functional
[23] = Half life in pregnant rat; assay type: ADME, organism-based; conditions: female, in vivo
Rattus norvegicus [24] = test: Inhibition of oxytocin-induced uterine contraction in iv dosed non-pregnant anaesthetized rat; assay type: functional
[25] = Half life in rat; assay type: ADME, organism-based; conditions: in vivo
[26] = Clearance in rat; assay type: ADME, organism-based; conditions: in vivo
Vasopressin V1a receptor [27] = target: T2, Vasopressin V1a receptor; test: Displacement of [3H]vasopressin from human vasopressin V1a receptor expressed in CHO cells at 10 uM
Target sequence in this assay (P37288 whole entry, looked up): as the sequence (P37288 whole entry) above

Vasopressin V1a receptor [28] = target: T2, Vasopressin V1a receptor; test: Displacement of [3H]vasopressin from human vasopressin V1a receptor expressed in CHO cells; assay type: cell-based
Target sequence in this assay (P37288 whole entry): as the sequence (P37288 whole entry) above

Oxytocin receptor [29] = target: T5, Oxytocin receptor; test: Displacement of [3H]-oxytocin from rat oxytocin receptor expressed in CHO cells; assay type: cell-based
Rattus norvegicus [30] = test: Inhibition of oxytocin-induced uterine contraction in non-pregnant rat at 30 mg/kg, po; assay type: functional
Rattus norvegicus [31] = test: Inhibition of oxytocin-induced uterine contraction in pregnant rat at 60 mg/kg, po; assay type: functional
[32] = Protein binding in human serum; assay type: ADME, cell-free; conditions: read-out: PB (converted)

T3 sequence (P30518 whole entry): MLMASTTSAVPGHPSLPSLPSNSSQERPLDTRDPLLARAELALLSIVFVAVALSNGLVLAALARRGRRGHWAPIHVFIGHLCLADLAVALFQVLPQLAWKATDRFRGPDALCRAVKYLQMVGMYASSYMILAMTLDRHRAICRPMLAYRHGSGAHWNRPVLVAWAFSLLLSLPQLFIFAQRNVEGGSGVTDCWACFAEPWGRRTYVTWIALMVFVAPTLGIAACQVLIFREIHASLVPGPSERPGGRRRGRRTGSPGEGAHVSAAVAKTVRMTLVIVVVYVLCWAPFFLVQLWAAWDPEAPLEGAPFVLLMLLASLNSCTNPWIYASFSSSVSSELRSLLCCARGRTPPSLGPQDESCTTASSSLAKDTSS
Vasopressin V2 receptor (Rattus norvegicus, UniProt Q00788), sequence (Q00788 whole entry): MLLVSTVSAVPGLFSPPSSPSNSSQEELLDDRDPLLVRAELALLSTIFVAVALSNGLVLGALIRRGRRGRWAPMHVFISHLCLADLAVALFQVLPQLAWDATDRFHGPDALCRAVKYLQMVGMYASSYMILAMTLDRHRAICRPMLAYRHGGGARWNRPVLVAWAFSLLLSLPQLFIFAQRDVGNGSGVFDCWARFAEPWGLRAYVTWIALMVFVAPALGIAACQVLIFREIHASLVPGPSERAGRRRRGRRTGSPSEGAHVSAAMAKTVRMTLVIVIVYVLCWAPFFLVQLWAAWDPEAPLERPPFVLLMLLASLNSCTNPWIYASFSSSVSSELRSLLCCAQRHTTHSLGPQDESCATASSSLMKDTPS
Vasopressin V1a receptor (Rattus norvegicus, UniProt P30560), sequence (P30560 whole entry): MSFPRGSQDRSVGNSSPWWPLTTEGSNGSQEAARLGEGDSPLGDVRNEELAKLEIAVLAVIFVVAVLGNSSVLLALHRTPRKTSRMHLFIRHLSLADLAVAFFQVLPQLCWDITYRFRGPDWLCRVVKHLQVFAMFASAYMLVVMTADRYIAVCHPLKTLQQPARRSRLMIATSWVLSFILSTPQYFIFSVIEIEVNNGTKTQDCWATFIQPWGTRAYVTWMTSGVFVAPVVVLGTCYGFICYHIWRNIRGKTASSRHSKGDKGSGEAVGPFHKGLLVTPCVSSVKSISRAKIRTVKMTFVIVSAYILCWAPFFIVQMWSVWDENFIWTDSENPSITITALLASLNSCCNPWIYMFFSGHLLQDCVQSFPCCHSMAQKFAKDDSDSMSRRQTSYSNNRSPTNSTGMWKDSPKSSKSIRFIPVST

CO/N=C1\C[C@@H](C(=O)NCC(O)c2ccccc2)N(C(=O)c2ccc(-c3ccccc3)cc2)C1 (stereo not given in full)
pIC50 (Oxytocin receptor [1]): 6.59
inhibition (Vasopressin V1a receptor [2]): 68%

CCOCc1nnc(-c2ccc(OCC)c(C)c2)n1-c1ccc(OC)nc1
pKi (Vasopressin V2 receptor [3]): < 5.00
pKi (Vasopressin V1b receptor): < 5.00
pKi (Vasopressin V1a receptor [2]): 6.26

COc1cc(OC2CCN(Cc3ccc[n+]([O-])c3C)CC2)ccc1C(=O)N1CCC(N2C(=O)OCc3ccccc32)CC1
AD50 (Rattus norvegicus [4]): 2.5 mg/kg
half-life [5]: 120 min
pKi (Vasopressin V2 receptor [6]): 4.55
pKi (Vasopressin V1a receptor [7]): 5.49
AD50 (Rattus norvegicus [8]): 0.78 mg/kg
solubility [9]: 10000 µg/mL (≈ 17 mM)
bioavailability [10]: 36%
pKi (Oxytocin receptor [11]): 8.31
bioavailability [12]: 80%
pKi (Oxytocin receptor [13]): 7.85
bioavailability [14]: 90%
pKi (Vasopressin V1a receptor [15]): 9.12
pKi (Vasopressin V2 receptor [16]): 5.01
Ratio Ki (Homo sapiens [17]): 650
Ratio Ki (Homo sapiens [18]): > 5700

CC[C@H](C)[C@@H]1C(=O)N[C@H](C2Cc3ccccc3C2)C(=O)N1[C@@H](C(=O)N1CCOCC1)c1coc(C)n1 [RETOSIBAN]
bioavailability [12]: 100%

COc1ccc(-n2c(C)nnc2-c2ccc(-c3ccccc3OC)cc2)cn1
pKi (Vasopressin V2 receptor [3]): 6.30
pKi (Vasopressin V1b receptor): < 5.00
pKi (Oxytocin receptor [19]): 7.25
pKi (Vasopressin V1a receptor [2]): 6.28

COc1ccc(N(Cc2ccc(-c3ccccc3C)cn2)S(=O)(=O)c2cn(C)c(C)n2)cn1
pKi (Oxytocin receptor [11]): 8.04
Ratio Ki (Homo sapiens [17]): 80
Ratio Ki (Homo sapiens [18]): 15700

CO/N=C1/C[C@@H](C(=O)NC[C@@H](O)c2ccccc2)N(C(=O)c2ccc(-c3ccccc3C)cc2)C1
pKi (Vasopressin V2 receptor [3]): < 5.00
Kb (Oxytocin receptor [20]): 15.8 nM
bioavailability [21]: 49%
ED50 (Rattus norvegicus [8]; Rattus norvegicus, iv): 3.5 mg/kg
pIC50 (Oxytocin receptor [1]): 7.55
pKi (Oxytocin receptor [11]): 7.55
bioavailability [12]: 49%
ED50 (Rattus norvegicus [22]): 89 mg/kg
half-life [23]: 168 min
Ratio Ki (Homo sapiens [17]): 6
Ratio Ki (Homo sapiens [18]): 350

CCOc1ccc(S(=O)(=O)N(CC(=O)N/N=C2\C(=O)Nc3ccccc32)c2ccc(C)cc2)cc1
ED50 (Rattus norvegicus [24]): 10 mg/kg
Ratio Ki (Homo sapiens [17]): 100

COc1ccc(-n2c(C)nnc2-c2cnc(-c3ccc(F)cc3C)cn2)cn1
pKi (Vasopressin V1b receptor): < 5.00
solubility [9]: 6 µg/mL (≈ 0.0159 mM)
half-life [25]: 60 min
clearance [26]: 50 mL/min/kg

O=C(CN(c1ccccc1)S(=O)(=O)c1ccccc1)N/N=C1\C(=O)Nc2ccccc21
inhibition (Vasopressin V1a receptor [27]): < 50%

CO/N=C1/C[C@@H](CO)N(C(=O)c2ccc(-c3ccccc3C)cc2)C1 [NOLASIBAN]
pKi (Vasopressin V1a receptor [28]): 6.48
pKi (Oxytocin receptor [29]): 6.68
inhibition in vivo at 30 mg/kg (Rattus norvegicus [30]): 51%
inhibition in vivo at 60 mg/kg (Rattus norvegicus [31]): 40%
bioavailability [12]: 55%
ED50 (Rattus norvegicus [22]): 30 mg/kg
fraction unbound [32]: 0.29

CO/N=C1/C[C@H](c2nc(C)no2)N(C(=O)c2ccc(-c3ccccc3C)cc2)C1
pKi (Oxytocin receptor [19]): 7.30
pKi (Vasopressin V1a receptor [2]): 7.22
